Laboratory results published in publication PMC6156383 (Frontiers in Psychiatry, 2018).
Several values for one entry are separate records, joined by “and”; a condition that tells them apart may be missing. Identical values can stand only once. Counter-ions that a name gives are not always drawn.

Assays:
NOP receptor [1] = biological target: T1, NOP receptor (Homo sapiens, UniProt P41146); test: [35S]GTPγS binding stimulation (agonist), CHO membranes; assay type: biochemical; settings: for NOP % stim: [35S]GTPγS stimulation relative to standard agonist N/OFQ; for EC50: [35S]GTPγS stimulation, average ± SD
T1 construct: expressed in transfected cells

NOP receptor [2] = biological target: T1, NOP receptor; assay type: binding
DOP receptor [3] = biological target: T2, DOP receptor (Homo sapiens, UniProt P41143); assay type: binding
T2 construct: expressed in transfected cells

MOP receptor [4] = biological target: T3, MOP receptor (Homo sapiens, UniProt P35372); assay type: binding
T3 construct: expressed in transfected cells

MOP receptor [5] = biological target: T3, MOP receptor; assay type: biochemical
KOP receptor [6] = biological target: T4, KOP receptor (Homo sapiens, UniProt P41145); assay type: binding
T4 construct: expressed in transfected cells

DOP receptor [7] = biological target: T2, DOP receptor; test: [35S]GTPγS binding stimulation (agonist), CHO membranes; assay type: biochemical; settings: for DOP % stim: [35S]GTPγS stimulation relative to standard agonist DPDPE; for EC50: [35S]GTPγS stimulation, * = too little stimulation (if < 15% an EC50 was not always determined)
KOP receptor [8] = biological target: T4, KOP receptor; assay type: biochemical
CD1 mice = test: Mouse tail flick assay (radiant heat, acute thermal nociception); assay type: in vivo
MOP receptor [9] = biological target: T3, MOP receptor; test: [35S]GTPγS antagonist assay and Schild analysis versus DAMGO; assay type: biochemical; settings: for Type of antagonism at MOP: Schild analysis; for MOP pA2 / MOP Ke: antagonist activity in [35S]GTPγS assay, Schild analysis versus DAMGO; for MOP Ke: unit not given
DOP receptor [10] = biological target: T2, DOP receptor; test: [35S]GTPγS antagonist assay versus DPDPE; assay type: biochemical
KOP receptor [11] = biological target: T4, KOP receptor; test: [35S]GTPγS antagonist assay versus U69593; assay type: biochemical
NOP receptor [12] = biological target: T1, NOP receptor; test: [35S]GTPγS antagonist assay versus N/OFQ; assay type: biochemical

T1 sequence (P41146 whole entry): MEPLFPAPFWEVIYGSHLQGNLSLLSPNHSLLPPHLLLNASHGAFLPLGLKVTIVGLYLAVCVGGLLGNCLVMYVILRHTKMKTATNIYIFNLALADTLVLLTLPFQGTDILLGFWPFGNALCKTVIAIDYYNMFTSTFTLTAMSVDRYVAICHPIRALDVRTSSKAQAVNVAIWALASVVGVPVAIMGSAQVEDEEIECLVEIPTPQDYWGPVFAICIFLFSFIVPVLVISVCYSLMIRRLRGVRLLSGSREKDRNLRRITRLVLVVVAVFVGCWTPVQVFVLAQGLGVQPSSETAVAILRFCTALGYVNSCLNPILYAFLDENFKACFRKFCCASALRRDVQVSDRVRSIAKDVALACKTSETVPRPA
T3 sequence (P35372 whole entry): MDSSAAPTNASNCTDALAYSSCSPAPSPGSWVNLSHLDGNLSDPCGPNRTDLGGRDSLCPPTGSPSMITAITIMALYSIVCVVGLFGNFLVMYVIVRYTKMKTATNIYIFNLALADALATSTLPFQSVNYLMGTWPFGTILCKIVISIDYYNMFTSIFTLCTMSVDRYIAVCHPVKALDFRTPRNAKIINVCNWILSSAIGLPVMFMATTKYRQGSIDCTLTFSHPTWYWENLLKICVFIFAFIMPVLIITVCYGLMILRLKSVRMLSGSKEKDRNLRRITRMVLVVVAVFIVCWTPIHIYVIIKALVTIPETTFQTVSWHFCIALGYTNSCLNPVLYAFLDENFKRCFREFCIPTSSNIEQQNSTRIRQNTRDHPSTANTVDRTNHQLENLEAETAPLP
T4 sequence (P41145 whole entry): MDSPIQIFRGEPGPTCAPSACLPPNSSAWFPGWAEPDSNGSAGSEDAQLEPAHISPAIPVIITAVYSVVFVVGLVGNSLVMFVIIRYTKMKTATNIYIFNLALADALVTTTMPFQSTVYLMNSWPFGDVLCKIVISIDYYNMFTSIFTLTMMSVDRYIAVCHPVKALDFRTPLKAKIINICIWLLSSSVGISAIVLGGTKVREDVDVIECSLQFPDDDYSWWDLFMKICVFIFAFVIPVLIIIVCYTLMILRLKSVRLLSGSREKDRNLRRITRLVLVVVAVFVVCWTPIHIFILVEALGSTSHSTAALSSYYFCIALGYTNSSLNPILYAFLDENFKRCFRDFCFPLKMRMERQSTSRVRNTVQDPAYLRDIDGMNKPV
T2 sequence (P41143 whole entry): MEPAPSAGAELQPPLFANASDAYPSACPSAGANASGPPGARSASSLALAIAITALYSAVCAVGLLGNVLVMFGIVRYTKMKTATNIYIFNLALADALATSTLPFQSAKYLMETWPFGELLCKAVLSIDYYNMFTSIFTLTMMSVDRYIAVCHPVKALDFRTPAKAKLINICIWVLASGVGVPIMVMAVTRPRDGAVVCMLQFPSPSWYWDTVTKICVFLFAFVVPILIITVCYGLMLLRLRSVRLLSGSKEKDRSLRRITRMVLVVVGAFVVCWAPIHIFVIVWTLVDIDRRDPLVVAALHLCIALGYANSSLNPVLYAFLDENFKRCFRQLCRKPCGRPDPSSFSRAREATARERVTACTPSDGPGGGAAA

## Cc1ccccc1CC(=O)O[C@@]12CCC(=O)[C@@H]3Oc4c(O)ccc5c4[C@@]31CCN(CC1CC1)[C@@H]2C5 [Compound 7c, 14β-(2′-methylphenylacetyl)-17-cyclopropylmethyl-7,8-dihydronoroxymorphinone]
NOP receptor [1]
  NOP % stim: 21.1 ± 1.4%
  EC50: 106 ± 32.2 nM
NOP receptor [2]
  Ki: 44.1 ± 3.1 nM
DOP receptor [3]
  Ki: 1.97 ± 0.19 nM
MOP receptor [4]
  Ki: 3.59 ± 0.86 nM
MOP receptor [5]
  EC50: 2.2 ± 0.2 nM
  MOP % stim: 41.9 ± 1.4%
KOP receptor [6]
  Ki: 1.69 ± 1.2 nM
DOP receptor [7]
  DOP % stim: 12.6 ± 3.1%
  EC50: 201 ± 59 nM
KOP receptor [8]
  EC50: 2.9 ± 1.8 nM
  KOP % stim: 86% and 86.3 ± 6.5%

## O=C(Cc1ccccc1F)O[C@@]12CCC(=O)[C@@H]3Oc4c(O)ccc5c4[C@@]31CCN(CC1CC1)[C@@H]2C5 [Compound 7i, 14β-(2′-fluorophenylacetyl)-17-cyclopropylmethyl-7,8-dihydronoroxymorphinone]
NOP receptor [1]
  NOP % stim: 14.5 ± 2.9%
  EC50: 94.1 ± 24.7 nM
NOP receptor [2]
  Ki: 69.7 ± 2.4 nM
DOP receptor [3]
  Ki: 4.07 ± 0.91 nM
MOP receptor [4]
  Ki: 2.59 ± 1.1 nM
MOP receptor [5]
  EC50: 2 ± 0.7 nM
  MOP % stim: 27.9 ± 2.8%
KOP receptor [6]
  Ki: 4.55 ± 0.7 nM
KOP receptor [8]
  EC50: 4 ± 2 nM
  KOP % stim: 43.8 ± 4.7%

## CN1CC[C@]23c4c5ccc(O)c4O[C@H]2[C@@H](O)C=C[C@H]3[C@H]1C5 [morphine, Morphine hydrochloride, reference compound]
CD1 mice; 3 mg/kg, 30, 60, 120 min
  %MPE, tail flick, positive control: anticipated increase in %MPE at all time points

## O=C(Cc1ccccc1Cl)O[C@@]12CCC(=O)[C@@H]3Oc4c(O)ccc5c4[C@@]31CCN(CC1CC1)[C@@H]2C5 [Compound 7k, 14β-(2′-chlorophenylacetyl)-17-cyclopropylmethyl-7,8-dihydronoroxymorphinone]
NOP receptor [1]
  NOP % stim: 49.9 ± 0.7%
  EC50: 808 ± 45.8 nM
NOP receptor [2]
  Ki: 32.6 ± 2.3 nM
DOP receptor [3]
  Ki: 3.24 ± 0.15 nM
MOP receptor [4]
  Ki: 4.66 ± 1.8 nM
MOP receptor [5]
  EC50: 2.4 ± 0.6 nM
  MOP % stim: 39.3 ± 4.7%
KOP receptor [6]
  Ki: 1.34 ± 0.5 nM
KOP receptor [8]
  EC50: 13.9 ± 6.4 nM
  KOP % stim: 31.3 ± 5.6%

## COc1ccccc1CC(=O)O[C@@]12CCC(=O)[C@@H]3Oc4c(O)ccc5c4[C@@]31CCN(CC1CC1)[C@@H]2C5 [Compound 7h, 14β-(2′-methoxyphenylacetyl)-17-cyclopropylmethyl-7,8-dihydronoroxymorphinone]
NOP receptor [1]
  NOP % stim: 40.8 ± 5.4%
  EC50: 479 ± 33.3 nM
NOP receptor [2]
  Ki: 62.3 ± 4.9 nM
MOP receptor [4]
  Ki: 3.77 ± 0.9 nM
MOP receptor [5]
  EC50: 0.5 ± 0.1 nM
  MOP % stim: 37.3 ± 0.7%
KOP receptor [6]
  Ki: 3.52 ± 0.9 nM
DOP receptor [7]
  DOP % stim: 19.2 ± 4.9%
KOP receptor [8]
  EC50: 1.6 ± 0.3 nM
  KOP % stim: 50.4 ± 6.0%

## O=C(Cc1ccc(Cl)cc1)O[C@@]12CCC(=O)[C@@H]3Oc4c(O)ccc5c4[C@@]31CCN(CC1CC1)C2C5 [Compound 7j, 14β-(4′-chlorophenylacetyl)-17-cyclopropylmethyl-7,8-dihydronoroxymorphinone]
NOP receptor [1]
  NOP % stim: 18.9 ± 2.7%
  EC50: 298 ± 18.6 nM
MOP receptor [9]
  Type of antagonism at MOP: non-competitive
  MOP pA2: Non-competitive
NOP receptor [2]
  Ki: 51.3 ± 14 nM
DOP receptor [3]
  Ki: 4.95 ± 1.1 nM
MOP receptor [4]
  Ki: 1.78 ± 0.03 nM
MOP receptor [5]
  MOP % stim: 8.2 ± 7.2%
KOP receptor [6]
  Ki: 3.95 ± 0.59 nM
DOP receptor [7]
  DOP % stim: 37.2 ± 0.2%
KOP receptor [8]
  EC50: 5.4 ± 1.3 nM
  KOP % stim: 37.1 ± 0.2%

## O=C(Cc1ccc2c(c1)OCO2)O[C@@]12CCC(=O)[C@@H]3Oc4c(O)ccc5c4[C@@]31CCN(CC1CC1)[C@@H]2C5 [Compound 7g, 14β-(3′,4′-dioxymethylenephenylacetyl)-17-cyclopropylmethyl-7,8-dihydronoroxymorphinone]
NOP receptor [1]
  NOP % stim: 43.5 ± 9.4%
  EC50: 562 ± 67.5 nM
MOP receptor [9]
  Type of antagonism at MOP: very potent competitive antagonists
  MOP pA2: 10.29 ± 0.24
  MOP Ke: 0.051 ± 0.018
NOP receptor [2]
  Ki: 94.3 ± 28 nM
DOP receptor [3]
  Ki: 1.25 ± 0.2 nM
MOP receptor [4]
  Ki: 0.99 ± 0.35 nM
MOP receptor [5]
  MOP % stim: 12.1 ± 3.7%
KOP receptor [6]
  Ki: 1.2 ± 0.42 nM
KOP receptor [8]
  EC50: 5.4 ± 0.1 nM
  KOP % stim: 41.1 ± 0.9%

## O=C(Cc1ccccc1)O[C@@]12CCC(=O)[C@@H]3Oc4c(O)ccc5c4[C@@]31CCN(CC1CC1)[C@@H]2C5 [Compound 7a, 14β-phenylacetyl-17-cyclopropylmethyl-7,8-dihydronoroxymorphinone]
NOP receptor [1]
  NOP % stim: 28.1 ± 4.8%
  EC50: 401 ± 161 nM
NOP receptor [2]
  Ki: 127 ± 17 nM
DOP receptor [3]
  Ki: 3.1 ± 0.6 nM
MOP receptor [4]
  Ki: 0.86 ± 0.18 nM
MOP receptor [5]
  EC50: 3.8 ± 1.8 nM
  MOP % stim: 31.6 ± 4.2%
KOP receptor [6]
  Ki: 1.14 ± 0.46 nM
DOP receptor [7]
  DOP % stim: 30.5 ± 5.5%
  EC50: 5.6 ± 0.4 nM
KOP receptor [8]
  EC50: 1.2 ± 0.6 nM
  KOP % stim: 44.5 ± 13%

## Cc1ccc(CC(=O)O[C@@]23CCC(=O)[C@@H]4Oc5c(O)ccc6c5[C@@]42CCN(CC2CC2)[C@@H]3C6)cc1 [Compound 7b, 14β-(4′-methylphenylacetyl)-17-cyclopropylmethyl-7,8-dihydronoroxymorphinone]
NOP receptor [1]
  NOP % stim: 22.3 ± 1.4%
  EC50: 169 ± 3.4 nM
NOP receptor [2]
  Ki: 36.3 ± 4.2 nM
DOP receptor [3]
  Ki: 1.7 ± 0.2 nM
MOP receptor [4]
  Ki: 1.87 ± 0.09 nM
MOP receptor [5]
  EC50: 1.6 ± 0.9 nM
  MOP % stim: 34.9 ± 2.0%
KOP receptor [6]
  Ki: 1.56 ± 0.28 nM
DOP receptor [7]
  DOP % stim: 27.0 ± 4.8%
  EC50: 3.8 ± 1.1 nM
KOP receptor [8]
  EC50: 6.3 ± 2.2 nM
  KOP % stim: 11.5 ± 2.7%

## COc1cccc(CC(=O)O[C@@]23CCC(=O)[C@@H]4Oc5c(O)ccc6c5[C@@]42CCN(CC2CC2)C3C6)c1 [Compound 7e, 14β-(3′-methoxyphenylacetyl)-17-cyclopropylmethyl-7,8-dihydronoroxymorphinone]
NOP receptor [1]
  NOP % stim: 36.1 ± 0.3%
  EC50: 374 ± 81.6 nM
NOP receptor [2]
  Ki: 50.1 ± 2.7 nM
DOP receptor [3]
  Ki: 3.61 ± 0.34 nM
MOP receptor [4]
  Ki: 1.1 ± 0.08 nM
MOP receptor [5]
  EC50: 13.3 ± 2.2 nM
  MOP % stim: 11.3 ± 1.3%
KOP receptor [6]
  Ki: 1.44 ± 0.33 nM
DOP receptor [7]
  DOP % stim: 35.7 ± 0.7%
  EC50: 9.9 ± 0.2 nM
KOP receptor [8]
  EC50: 1.7 ± 0.4 nM
  KOP % stim: 46.3 ± 8.1%

## COc1ccc(CC(=O)O[C@@]23CCC(=O)[C@@H]4Oc5c(O)ccc6c5[C@@]42CCN(CC2CC2)[C@@H]3C6)cc1 [Compound 7f, 14β-(4′-methoxyphenylacetyl)-17-cyclopropylmethyl-7,8-dihydronoroxymorphinone]
CD1 mice; 1 mg/kg s.c.
  Tail flick latency versus vehicle controls: significant increase in tail flick latency compared to vehicle controls at the 60- and 120-min time points
CD1 mice; 1 mg/kg s.c. given 10 min before morphine, P < 0.05
  Effect on morphine-induced antinociception, tail flick: morphine-induced antinociception was attenuated at the 30- and 60-min time points
CD1 mice; 3.0 mg/kg s.c.
  Antinociception versus vehicle controls, tail flick: significant antinociception at the 30- and 120-min time points
CD1 mice; 1 and 3 mg/kg s.c., 30, 60, 120 min
  Antinociception (%MPE), tail flick: low levels of antinociception
NOP receptor [1]
  NOP % stim: 8.9 ± 1.0%
  EC50: 61.8 ± 20.1 nM
MOP receptor [9]
  Type of antagonism at MOP: very potent competitive antagonists
  MOP pA2: 10.58 ± 0.13 and 10.58 ± 0.14
  MOP Ke: 0.026 ± 0.008
MOP receptor [9]; in the presence of 1 μM DAMGO, read-out: IC50 inhibiting DAMGO stimulation of [35S]GTPγS binding, MOP
  IC50: 12.4 ± 2.25 nM
NOP receptor [2]
  Ki: 49.8 ± 7.1 nM
DOP receptor [10]; [35S]GTPγS antagonist assay
  Type of inhibition at DOP: non-competitive
DOP receptor [10]; [35S]GTPγS, in the presence of 1 μM DPDPE
  IC50: 48.1 ± 14.1 nM
DOP receptor [3]
  Ki: 2.56 ± 0.48 nM
KOP receptor [11]; [35S]GTPγS antagonist assay
  Type of inhibition at KOP: non-competitive
KOP receptor [11]; [35S]GTPγS, in the presence of 1 μM U69593
  IC50: 12.2 ± 0.11 nM
MOP receptor [4]
  Ki: 1.08 ± 0.33 nM
MOP receptor [5]
  MOP % stim: 7.8 ± 3.5%
KOP receptor [6]
  Ki: 1.9 ± 0.42 nM
DOP receptor [7]
  DOP % stim: 18.4 ± 1.3%
  EC50: 59.4 ± 19.6 nM
KOP receptor [8]
  KOP % stim: 6.5 ± 3.3%
NOP receptor [12]; [35S]GTPγS antagonist assay
  Type of inhibition at NOP: non-competitive
NOP receptor [12]; [35S]GTPγS, in the presence of 100 nM N/OFQ
  IC50: 5640 nM

## Cc1cccc(CC(=O)O[C@@]23CCC(=O)[C@@H]4Oc5c(O)ccc6c5[C@@]42CCN(CC2CC2)[C@@H]3C6)c1 [Compound 7d, 14β-(3′-methylphenylacetyl)-17-cyclopropylmethyl-7,8-dihydronoroxymorphinone]
NOP receptor [1]
  NOP % stim: 59.3 ± 2.4%
  EC50: 855 ± 185 nM
NOP receptor [2]
  Ki: 49.9 ± 3.5 nM
DOP receptor [3]
  Ki: 5.58 ± 0.22 nM
MOP receptor [4]
  Ki: 1.91 ± 0.51 nM
MOP receptor [5]
  EC50: 5.2 ± 2 nM
  MOP % stim: 40.1 ± 4.4%
KOP receptor [6]
  Ki: 2.8 ± 0.91 nM
DOP receptor [7]
  DOP % stim: 15.8 ± 0.1%
  EC50: 21.3 ± 2.2 nM
KOP receptor [8]
  EC50: 1 ± 0.3 nM
  KOP % stim: 46.4 ± 3.6%
